# Data reported in publication PMC12257394, “Design, Synthesis, and Biological Evaluation of Ferrocenyl–Cyclo-(Gly‑L‑Pro) Hybrids Sensitizing Multidrug-Resistant Cancer Cells to Anticancer Agents” (ACS Medicinal Chemistry Letters, 2025).
# “Also recorded” adds a separate entry of the source.
# Target: T1, ABCB1 (Homo sapiens, UniProt P08183)
# T1 construct: ABCB1-overexpressing SW620V cells; endogenous in cells; host or cells: SW620V (vincristine-resistant variant of SW620, developed in the authors' laboratory by drug selection)
# T1 sequence (P08183 whole entry): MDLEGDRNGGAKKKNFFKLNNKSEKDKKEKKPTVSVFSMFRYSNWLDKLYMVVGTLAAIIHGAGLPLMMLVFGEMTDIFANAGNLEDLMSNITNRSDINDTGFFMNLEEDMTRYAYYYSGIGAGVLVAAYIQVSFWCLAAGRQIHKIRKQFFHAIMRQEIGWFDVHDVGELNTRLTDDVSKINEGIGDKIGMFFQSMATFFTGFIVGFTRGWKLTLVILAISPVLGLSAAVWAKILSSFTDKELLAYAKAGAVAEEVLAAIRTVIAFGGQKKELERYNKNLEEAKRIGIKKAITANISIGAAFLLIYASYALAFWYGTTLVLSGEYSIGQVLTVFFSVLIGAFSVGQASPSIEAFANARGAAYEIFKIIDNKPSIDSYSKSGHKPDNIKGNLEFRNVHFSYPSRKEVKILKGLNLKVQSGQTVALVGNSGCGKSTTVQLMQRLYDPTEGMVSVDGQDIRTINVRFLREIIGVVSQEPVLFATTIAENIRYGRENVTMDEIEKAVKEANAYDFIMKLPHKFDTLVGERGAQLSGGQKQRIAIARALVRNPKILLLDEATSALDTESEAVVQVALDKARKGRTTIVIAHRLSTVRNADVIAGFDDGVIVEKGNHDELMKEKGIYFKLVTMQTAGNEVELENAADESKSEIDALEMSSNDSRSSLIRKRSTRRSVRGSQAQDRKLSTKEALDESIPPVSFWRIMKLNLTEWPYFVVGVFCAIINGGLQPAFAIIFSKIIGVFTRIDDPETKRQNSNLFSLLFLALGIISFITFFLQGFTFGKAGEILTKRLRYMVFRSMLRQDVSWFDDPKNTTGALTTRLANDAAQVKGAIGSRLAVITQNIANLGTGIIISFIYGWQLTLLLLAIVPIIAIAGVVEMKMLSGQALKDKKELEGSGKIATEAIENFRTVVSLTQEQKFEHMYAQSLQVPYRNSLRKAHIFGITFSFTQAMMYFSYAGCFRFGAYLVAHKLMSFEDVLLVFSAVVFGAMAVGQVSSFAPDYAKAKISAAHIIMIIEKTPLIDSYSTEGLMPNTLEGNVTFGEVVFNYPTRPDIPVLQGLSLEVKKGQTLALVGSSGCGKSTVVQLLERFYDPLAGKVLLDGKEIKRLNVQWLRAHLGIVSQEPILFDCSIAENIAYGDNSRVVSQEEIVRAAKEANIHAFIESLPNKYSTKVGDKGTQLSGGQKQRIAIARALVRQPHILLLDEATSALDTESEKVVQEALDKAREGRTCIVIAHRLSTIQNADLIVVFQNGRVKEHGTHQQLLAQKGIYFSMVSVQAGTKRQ
# Test: Calcein accumulation transport assay in SW620V cells
# Format: cell-based
# Conditions: 10 µM compound; for increase of intracellular retention of calcein: ABCB1, SW620V cells; for inhibition of ABCB1 activity (calcein accumulation assay): SW620V cells, n = 3
# Text: To confirm the hypothesis of direct interaction between putative ABC protein inhibitors and transporter molecules, we conducted a series of experiments based on fluorescent probe transport as described previously. None of the compounds affected 2′,7′-bis(2-carboxyethyl)-5-(and-6)-carboxyfluorescein (BCECF) efflux out of SW620M cells, indicating the lack of interaction between the putative inhibitors and ABCC1 (Figure A). […] As anticipated, none of the newly synthesized compounds affected dye accumulation in drug-sensitive SW620 cells (data not shown).
# SW620 cells and their drug-resistant variants overexpressing ABCB1 (SW620V), ABCC1 (SW620M), or ABCG2 (SW620Mito) were trypsinized and suspended in a complete cell - culture medium prewarmed to 37°C at a final density of approximately 1 × 10^6/mL. The tested compounds were added from DMSO stock solutions to a final concentration of 10 µM.
# Respective samples were supplemented with a specific fluorescent marker (100 nM calcein AM for ABCB1, 100 nM BCECF AM for ABCC1, and 1 µM pheophorbide A for A BCG2). For the control, given protein-specific inhibitors (10 µM verapamil for ABCB1, 25 µM MK-571 for ABCC1, and 10 µM Ko143 for ABCG2) were added to parallel, tested compound-free, samples. For ABCB1 and ABCG2 assays (dye accumulation assays), intracellular fluorescence was measured by flow cytometry (FACSymphony A1, Becton, Dickinson and Company, New Jersey, USA) immediately after dye addition (time 0) and every 3–5 min up to approximately 30 min using a flow cytometer set at 488 nm excitation and 530/30 nm emission for the calcein/ABCB1 assay and 400 nm excitation and 655/8 nm emission for the pheophorbide A/ABCG2 assay. For the BCECF/ABCC1 assay (dye exclusion assay), the sample was preincubated at 37°C for 10 min, centrifuged (400 × g, 10 min, RT), and then resuspended in fresh medium. The intracellular BCECF concentration was then immediately measured at 488 nm excitation and 530/30 nm emission (time 0). Further measurements were performed at 15 - min intervals. All samples were incubated at 37°C between measurements. The accumulation/exclusion curves were plotted, and the slope of the initial accumulation rate or dye retention half time was evaluated using the GraphPad Prism software version 10 (GraphPad Software, Boston, Massachusetts USA). The difference between the a ccumulation rate/half time value for dye only and the tested compound/inhibitor samples was expressed as a given protein activity measure.
SMILES,increase of intracellular retention of calcein,inhibition of ABCB1 activity (calcein accumulation assay)
"O=C1N/C(=C\c2ccccc2-[c-]2cccc2)C(=O)N2CCC[C@@H]12.[Fe+2].c1cc[cH-]c1 [(S,Z)-4b]",up to 3.4 fold,efficiently inhibited ABCB1 activity; also recorded: inhibit calcein efflux
"O=C1N/C(=C\c2ccc(-[c-]3cccc3)cc2)C(=O)N2CCC[C@@H]12.[Fe+2].c1cc[cH-]c1 [(S,Z)-4d]",up to 3.4 fold,efficiently inhibited ABCB1 activity; also recorded: inhibit calcein efflux
